# According to patent US11136370B2, “Compositions and methods for thrombin generation assay” (The Scripps Research Institute, priority 2016, dated 2021):
# How the values were obtained:
# [1] = target: FXa generated by Russel's viper venom (RVV) FX activator (Homo sapiens, UniProt P00742); assay: FVIII activation by FXa generated by Russel's viper venom FX activator; type: biochemical
# Method: Thrombin was quantified with a fluorogenic substrate for calculation of % inhibition. […] Reactions were initiated by 100 pM FXa with 50 pM rTF as the phospholipid surface (top); or the preformed complex of 50 pM TF, 100 pM iFVIIa, 100 pM FXa, 5 nM NAPc2 (middle); or 50 pM TF/200 pM FVIIa/135 nM FX (bottom) in mixtures of 0.7 nM FVIII, 3 nM FV, 200 nM lepirudin, 10 nM TFPI, and 2.5 mM CaCl2 incubated for 120 s at 37° C. […] Endogenous thrombin potential (ETP, right) was calculated from the area under the TG curve (n=2).
# In some experiments, prothrombin was omitted from reactions and 200 nM lepirudin was added to inactivate potentially contaminating thrombin. […] A stable complex with FXa as the only active protease was prepared with 50 pM rTF, 100 pM FVIIa-S195A (iFVIIa), 100 pM FXa and 5 nM NAPc2 incubated for 120 s at 37° C. FVIII activation by this complex was examined in reactions including FVIII, FV and lepirudin incubated for 120 s.
# FXa V17M mutant = target: T1, FXa V17M mutant (Homo sapiens, UniProt P00742, V236M); assay: FVIIIa generation by FXa V17M in stable complex with TF-iFVIIa-NAPc2; type: biochemical; conditions: up to 5 nM rivaroxaban
# T1 construct: TF-associated FVIIa has converted FX into FXa active protease
# T1 sequence (P00742 41-179): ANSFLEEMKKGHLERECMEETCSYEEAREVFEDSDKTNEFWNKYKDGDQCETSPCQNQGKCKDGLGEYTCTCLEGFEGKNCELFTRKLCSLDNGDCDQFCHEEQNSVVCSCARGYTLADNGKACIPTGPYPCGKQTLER
# T1 sequence (P00742 235-488 V236M): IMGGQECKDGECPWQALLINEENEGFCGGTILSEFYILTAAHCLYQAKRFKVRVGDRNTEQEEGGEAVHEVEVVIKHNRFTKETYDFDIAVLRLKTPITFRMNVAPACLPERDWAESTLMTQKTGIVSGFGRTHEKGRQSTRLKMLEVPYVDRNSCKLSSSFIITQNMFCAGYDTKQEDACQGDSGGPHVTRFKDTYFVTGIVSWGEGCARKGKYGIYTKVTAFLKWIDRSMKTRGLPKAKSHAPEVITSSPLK
# [2] = target: T2, ternary TF-FVIIa-FXa complex (Homo sapiens, UniProt P00742); assay: FV activation (FVa generation, WB) by TF-FVIIa with FX; type: biochemical; conditions: clinically relevant concentrations
# T2 construct: purchased Haematologic Technologies (FX); Siemens Healthcare Diagnostics (rTF); FVIIa made in house
# T2 sequence (P00742 41-179 limits assumed): as the sequence (P00742 41-179) above
# T2 sequence (P00742 235-488 limits assumed): as the sequence (P00742 235-488 V236M) above, with M2V counted along it
# Method: (A) Phospholipid-free assay of FX (1 μM) to FXa conversion by the complex of 2 μM soluble rTF with 10 nM FVIIa WT, T99Y or E154A. (B) FXa generation by 50 pM phospholipid-reconstituted rTF with 200 pM FVIIa WT, T99Y or E154A added to 135 nM FX, 0.7 nM FVIII, 3 nM FV and 200 nM lepirudin (2 min, n=2-3; 4 min, n=4-5; 6 min, n=6-9). (C) WB (representing 2) of FVIII activation in reactions of 50 pM TF, 200 pM FVIIa WT or mutants, 0.7 nM FVIII, 3 nM FV and 200 nM lepirudin without/with 135 nM FX, incubated for 120 s at 37° C. […] (E) FXa generation measured in reactions as in (D) without TFPIα and in the presence of 10 nM FIXa (left, incubation 180 s; n=5-6 except=2 for E154A) or 90 nM FIX (right, incubation for 360 s; n=5-6). […] Differences were evaluated by the ANOVA/Tukey test; results at 4 and 6 min in (B) and in reactions with FIX in (E, right) were analyzed after transformation as y=log 10 y (**P<0.01, ***P<0.001).
# Time-course (mean±SEM) of 1 μM FX activation by 2 μM phospholipid-free soluble recombinant TF with 10 nM FVIIa WT (n=4-7), T99Y (n=2-3) or E154A mutants (n=3-4); incubation at 37° C. […] FVIIIa activity (25th-75th percentile bars, min to max whiskers, line at the median) generated as in (B), but without TFPIα, measured as FXa produced by 10 nM FIXa (n=9 for FVIIa WT and T99Y; n=5 for E154A). **P<0.01, ***P<0.001) by ANOVA/Tukey tests. […]
# thrombin generation (TG) = type: biochemical, human
# Method: TG in PRP or reconstituted PRP was evaluated as known to those skilled in the art. Native PRP was prepared from blood collected into final 12.9 mM trisodium citrate by centrifugation at 250 g for 10 min at 25° C. The platelet count was adjusted to 180×10^3/μl by dilution with homologous PPP obtained by centrifuging PRP for 10 min at 1,500 g. CTI was added at 30-50 μg/ml depending on calibrated potency as assessed by FXIIa inhibition. Reconstituted PRP was prepared with washed platelets prepared from normal PRP by adding ⅕th volume of acid citrate-dextrose (71 mM citric acid, 85 mM trisodium citrate, and 111 mM dextrose, pH 4.5) and 5 U/ml apyrase; following centrifugation at 1,500 g for 10 minutes at 25° C., the platelet pellet was resuspended into PPP lacking FVII (George King Bio-Medical) or FIX (Haematologic Technologies) to give a final platelet count of 180·103/μl PRP was mixed with varying concentrations of rTF and/or 20 pM FIXa in 96-well microtiter plates. The reaction was started by adding 18 mM CaCl2 with 360 μM of the thrombin substrate benzyloxycarbonyl-glycyl-glycyl-L-arginine coupled to the fluorogenic group 7-amido-4-methylcoumarin (Gly-Gly-Arg-AMC; Bachem Americas, Torrance, Calif.). Fluorescence was measured continuously at 37° C. for up to 40 min in a spectrofluorometer (355/460 nm excitation/emission). The rate of fluorescence intensity increase as a function of time (dF/dt) was calculated with Turbo Delphi 2006 (Borland Software Corporation, Austin, Tex.) and converted to thrombin-equivalent concentration (nM) using a calibration curve. The endogenous thrombin potential (ETP) of samples, i.e. total generated thrombin activity, was determined from the area under the TG curve. When specified, TG was measured with a discontinuous 2-stage assay with a detection limit of 5 pM. For this, TG was induced by 0.15 pM rTF and 18 mM CaCl2 in reconstituted FVII-deficient PRP including 30 μg/ml CTI with 400 pM WT FVIIa or iFVIIa without or with 20 pM FIXa. After incubation for up to 11 min at 37° C., reactions were terminated by adding 20 mM EDTA and generated thrombin was measured using the highly sensitive thrombin substrate H-D-CHA-Ala-Arg-AMC.2AcOH (Pefafluor TH, Pentapharm, Basel, Switzerland) at 50 μM concentration. In other experiments, TG was induced by TFiFVIIa-FXa-TFPI or TF-iFVIIa-FXa-NAPc2. These stable complexes were pre-formed by incubating 5 nM FXa, 10 nM TF, 10 nM iFVIIa and 40 nM TFPI or NAPc2 in the presence of 2.5 mM CaCl2 for 2 min at 37° C. Complexes were added into FVII-deficient PRP, followed by incubation for 8 min at 37° C.
# PRP was prepared from blood collected into trisodium citrate (final concentration 0.0129 M) by centrifugation for at 250 g for 10 min at 25° C.; the platelet count was adjusted at 180.103 per μl by diluting with homologous platelet-poor plasma (PPP) obtained by centrifuging PRP for an additional 10 min at 1,500 g. When indicated, CTI was added at 30 to 50 μg/ml depending on calibrated potency measured by FXIIa inhibition. Reconstituted PRP was prepared by adding normal washed platelets into PPP (without or with CTI) lacking FVII, FVIII (both from George King Bio-Medical, Overland Park, Kans.) or FIX (Haematologic Technologies). […] generation in PRP was measured as described by Hemker et al. 53 μl of PRP was mixed in 96-well microtiter plates with 15 μl of a solution containing rTF and/or one of the intrinsic coagulation pathway proteases—FXIIa, FXIa or FIXa—to achieve the indicated final concentrations. Antibodies or inhibitors were also added at this point at the concentration indicated for each specific case. The reaction was started by adding between 15 and 20 μl of 100 mM CaCl2 and 2 mM fluorogenic substrate, benzyloxycarbonyl-glycyl-glycyl-L-arginine-7-amido-4-methylcoumarin (Gly-Gly-Arg-AMC; Bachem Americas, Torrance, Calif.).
# [3] = Plasma concentration in treated patients; type: in vivo; conditions: human, oral, n=10, 2 hours after drug intake
# FXa generated by Russel's viper venom (RVV) FX activator, sequence (P00742 41-179 limits assumed): as the sequence (P00742 41-179) above
# FXa generated by Russel's viper venom (RVV) FX activator, sequence (P00742 235-488 limits assumed): as the sequence (P00742 235-488 V236M) above, with M2V counted along it
smiles,measurement,setting,value
O=C(NC[C@H]1CN(c2ccc(N3CCOCC3=O)cc2)C(=O)O1)c1ccc(Cl)s1 [Rivaroxaban],"FVIIIa generation, initiator RVV-X","[1]; TFPI and rivaroxaban combined, rivaroxaban as high as 450 nM",substantial inhibition
same,effect on FVIII activation by RVV-generated FXa,[1]; equivalent FXa levels as with TF-FVIIa,inhibited
same,effect on FVIIIa generation by FXa V17M,FXa V17M mutant,insensitive
same,effect on FVa generation by the ternary TF-FVIIa-FXa complex,[2],blocked
same,inhibition of TG in the presence of MoAb 12C7,thrombin generation (TG); low rivaroxaban concentrations,more pronounced inhibition
same,difference in dose response between rivaroxaban and apixaban,thrombin generation (TG); recalcified PRP containing CTI,~3 fold
same,effect on TF-induced thrombin generation,thrombin generation (TG); recalcified PRP containing CTI,inhibited
same,concentration at 2 h,[3],312 nM
